In one data set the target is T1, hPPARβ (Homo sapiens, UniProt Q03181).
T1 sequence (Q03181 211-441 limits assumed): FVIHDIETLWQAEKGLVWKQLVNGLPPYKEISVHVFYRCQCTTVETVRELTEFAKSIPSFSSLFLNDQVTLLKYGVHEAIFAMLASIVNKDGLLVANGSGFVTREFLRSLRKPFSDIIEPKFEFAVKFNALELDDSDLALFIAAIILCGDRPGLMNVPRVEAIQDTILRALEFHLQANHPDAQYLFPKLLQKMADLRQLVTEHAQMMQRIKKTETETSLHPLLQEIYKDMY
In words: Test A: transient transfection assay in HepG2 cells, Gal4-PPAR chimeric receptor, luciferase reporter (hPPARβ). It counts as cell-based. Conditions: HepG2 cells transfected with hPPARβ chimeric receptor; 24 hours incubation; compound 50 μM to 50 pM; read-out: Hep G2-hβ EC50. On the procedure: (§1) 1. Test A. Transient Transfections Assay Using the HepG2 Hepatoma Cell Line.
(§2) HepG2 cells were transiently transfected with an expression plasmids encoding hPPARα, hPPARβ or mPPARγ chimeric receptors and a reporter containing the yeast upstream activating sequence (UAS) upstream of the viral E1B promoter controlling a luciferase reporter gene. In addition, the plasmid pRSVβ-gal was used to control for transfection efficiency. HepG2 cells were grown in DMEM supplemented with 10% FBS and 1 μM non-essential amino acid. On the first day, cells were split into 100 mm dishes at 2.5×10^6/dish and incubated overnight at 37C.°/5% CO2. On the second day the cells were transiently transfected with plasmid DNA encoding a chimeric receptor, the luciferase reporter gene; and β-gal. For each 100 mm dish, 15 μg of lucifease reporter (PG5E1b) DNA, 15 μg of Gal4-pPAR chimeric receptor DNA, and 1.5 μg of μ-gal plasmid DNA were mixed with 1.4 ml of opti-MEM in the tube. 28 μl of LipoFectamine-2000 reagent was added to 1.4 ml of opti-MEM in the tube, and incubate for 5 min at RT. The diluted Lipofectamine-2000 reagent was combined with the DNA mixture, and incubate for 20 min at RT. After fresh medium was added to each 100 mm dish of cells, 2.8 ml of Lipofectamine2000-DNA mixture was added dropwise to the 100 mm dish containing 14 ml of medium, and incubate 37° C. overnight. On day three cells were trypsinized off the 100 mm dishes and re-plated on 96 well plates. Cells were plated at 2.5×10^4 cells per well in 150 μl of media and 50 μl of compound diluted by media was added. The concentrations of reference agents and test compound added were in the range from 50 μM to 50 pM. After addition of compounds, the plates were incubated at 37° C. for 24 hours. Subsequently cells were washed once with 100 μl of PBS, lysed, and processed for measuring luciferase and μ-gal activity using Dual-Light luciferase kit from Tropix®, according to the manufacturer's recommendations, on an EG&G Bethold MicroLumat LB96P luminometer. EC50 values were obtained using the GraphPad Prism™ program.

A further data set has as its target T2, hPPARα (Homo sapiens, UniProt Q07869).
T2 sequence (Q07869 200-468 limits assumed): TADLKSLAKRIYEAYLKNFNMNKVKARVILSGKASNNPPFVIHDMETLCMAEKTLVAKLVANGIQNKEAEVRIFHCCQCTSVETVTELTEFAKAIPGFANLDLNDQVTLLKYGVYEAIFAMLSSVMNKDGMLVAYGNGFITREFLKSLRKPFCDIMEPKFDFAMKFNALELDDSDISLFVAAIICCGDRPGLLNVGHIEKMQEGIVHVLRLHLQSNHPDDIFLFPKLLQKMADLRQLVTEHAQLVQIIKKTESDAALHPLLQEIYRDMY
In words: Test A: transient transfection assay in HepG2 cells, Gal4-PPAR chimeric receptor, luciferase reporter (hPPARα). In kind it is cell-based. Conditions: HepG2 cells transfected with hPPARα chimeric receptor; 24 hours incubation; compound 50 μM to 50 pM; read-out: Hep G2-hα EC50. On the procedure: as §1
as §2, with “program. […] Accordingly, the compounds of the present invention should find considerable therapeutic applications for hypercholesterolemia and hyperlipidemia.” for “program.”

Molecule `Cc1nc(-c2ccc(C(F)(F)F)cc2)sc1CSc1ccc2c(c1)CC(CC(=O)O)CO2` (stereo not shown) [Example 18, 6-[4-methyl-2-(4-trifluoromethyl-pheny)-thiazol-5-ylmethylsulfanyl]-chroman-3-yl-acetic acid] came in with a melting point of 149 to 149.5 °C. Further, the EC50 at hPPARβ was found to be 0.394 µM. The EC50 at hPPARα came out at 1000 µM.
As for `Cc1nc(-c2ccc(C(F)(F)F)cc2)sc1CSc1ccc2c(c1)CCC(CC(=O)O)C2=O` (stereo not shown) [Example 7, {6-[4-Methyl-2-(4-trifluoromethylphenyl)thiazol-5-ylmethylsulfanyl]-1-oxo-3,4-dihydro-1H-naphthalen-2-yl}-acetic acid], the EC50 at hPPARβ is 0.614 µM.
Take `COc1cc2c(cc1SCc1sc(-c3ccc(C(F)(F)F)cc3)nc1C)CCC2CC(=O)O` (stereo not shown) [Example 19, {6-Methoxy-5-[4-methyl-2-(4-trifluoromethyl-phenyl)-thiazol-5-ylmethylsulfanyl]-indan-1-yl}-acetic acid]: the EC50 on hPPARβ was 0.113 µM; at hPPARα, 0.042 µM.
Regarding `Cc1nc(-c2ccc(C(F)(F)F)cc2)sc1CSc1ccc2c(c1)CCC(C(=O)O)O2` (stereo not shown) [Example 3], the concentration giving a half-maximal response (EC50) came to 0.762 µM on hPPARβ and 0.917 µM at hPPARα.
`COc1cc2on(CC(=O)O)c(=O)c2cc1SCc1sc(-c2ccc(C(F)(F)F)cc2)nc1C` [Example 22, 6-Methoxy-5-[4-Methyl-2-(4-trifluoromethyl-pheny)-thiazol-5-ylmethylsulfanyl]-3-oxo-3H-benzo[d]isoxazo-2-yl-acetic-acid]: the melting point fell in the range of 245 to 247 °C.
Consider `Cc1nc(-c2ccc(C(F)(F)F)cc2)sc1CSc1ccc2c(c1)CCC(C)(CC(=O)O)O2` (stereo not shown) [Example 8, {2-methyl-6-[4-methyl-2-(4-trifluoromethyl-phenyl)-thiazol-5-ylmethylsulfanyl]-chroman-2-yl}-acetic acid], for which the EC50 on hPPARβ was determined as 3.47 µM.
On to `Cc1nc(-c2ccc(C(F)(F)F)cc2)sc1CSc1ccc2c(c1)C=C(C(=O)O)CO2` [Example 16, 6-[4-methyl-2-(4-trifluoromethyl-pheny)-thiazol-5-ylmethylsulfanyl]-2H-chromene-3-carboxylic acid], for which, on hPPARβ, the EC50 came to 2.21 µM.
Same read-out and setting: next, `Cc1nc(-c2ccc(C(F)(F)F)cc2)sc1CSc1ccc2c(c1)CCC(=O)N2CC(=O)O` [Example 12]: 0.896 µM.
Regarding `Cc1nc(-c2ccc(C(F)(F)F)cc2)sc1COc1ccc2c(CC(=O)O)csc2c1` [Example 23, {6-[4-Methyl-2-(4-trifluoromethyl-phenyl)-thiazol-5-ylmethoxy]-benzo[b]thiophen-3-yl}-acetic acid], on hPPARα, the EC50 was found to be 0.572 µM.
Regarding `Cc1nc(-c2ccc(C(F)(F)F)cc2)sc1CSc1ccc2c(c1)CC(CC(=O)O)O2` (stereo not shown) [Example 4, {5-[4-Methyl-2-(4-trifluoromethyl-phenyl)-thiazol-5-ylmethylsulfanyl]-2,3-dihydro-benzofuran-2-yl}-acetic acid], the results for the EC50 on hPPARβ and on hPPARα were 1.54 µM and 0.899 µM, respectively.
On to `Cc1nc(-c2ccc(C(F)(F)F)cc2)sc1CSc1ccc2c(c1)CCC(CC(=O)O)O2` (stereo not shown) [Example 5], for which the EC50 turned out to be 0.0083 µM on hPPARβ and 3.74 µM on hPPARα.
Turning to `Cc1cc2c(cc1SCc1sc(-c3ccc(C(F)(F)F)cc3)nc1C)CCC(CC(=O)O)O2` (stereo not shown) [Example 15, 7-Methyl-6-[4-methyl-2-(4-trifluoromethyl-pheny)-thiazol-5-ylmethylsulfanyl]-chroman-2-yl-acetic acid], the EC50 on hPPARβ was found to be 0.252 µM; on hPPARα it was 1.3 µM.
For `COc1cc2c(cc1SCc1sc(-c3ccc(C(F)(F)F)cc3)nc1C)CCC(CC(=O)O)O2` (stereo not shown) [Example 14, 7-methoxy-6-[4-methyl-2-(4-trifluoromethyl-pheny)-thiazol-5-ylmethylsulfanyl]-chroman-2-yl-acetic acid], the 50% effective concentration (EC50) at hPPARβ is 0.019 µM.
For `COc1cc2c(cc1SCc1sc(-c3ccc(C(F)(F)F)cc3)nc1C)CCC(CC(=O)O)C2` (stereo not shown) [Example 13, {7-Methoxy-6-[4-methyl-2-(4-trifluoromethyl-phenyl)-thiazol-5-ylmethylsulfanyl]-1,2,3,4-tetrahydro-naphthalen-2-yl}-acetic acid], the EC50 on hPPARβ came to 0.0241 µM; at hPPARα, 1.19 µM.
On to `Cc1nc(-c2ccc(C(F)(F)F)cc2)sc1CSc1ccc2c(c1)CC(CC(=O)O)C2` (stereo not shown) [Example 2, {5-[4-methyl-2-(4-trifluoromethyl-phenyl)-thiazol-5-ylmethylsulfanyl]-indan-2-yl}-acetic acid], for which the EC50 on hPPARβ came out at 0.267 µM; at hPPARα it was 1.96 µM.
Taken in the same sequence, the figures for `Cc1nc(-c2ccc(C(F)(F)F)cc2)sc1CSc1ccc2c(c1)CCCN2CC(=O)O` [Example 11, {6-[4-methyl-2-(4-trifluoromethyl-phenyl)-thiazol-5-ylmethylsulfanyl]-3,4-dihydro-2H-quinolin-1-yl}-acetic acid] were 0.286 µM and 1.93 µM.
Molecule `Cc1nc(-c2ccc(C(F)(F)F)cc2)sc1CSc1ccc2oc(C(=O)O)cc2c1` [Example 6, 5-[4-methyl-2-(4-trifluoromethyl-phenyl)-thiazol-5-ylmethylsulfanyl]-benzofuran-2-carboxylic acid] returned a melting point of 207 to 209 °C. Besides, the EC50 on hPPARα stood at 2.04 µM.
For `Cc1nc(-c2ccc(C(F)(F)F)cc2)sc1CSc1ccc2c(c1)CC(C(=O)O)CO2` (stereo not shown) [Example 17, 6-[4-methyl-2-(4-trifluoromethyl-pheny)-thiazol-5-ylmethylsulfanyl]-chroman-3-carboxylic acid], the melting point was in the range of 139 to 140 °C. In addition, the EC50 at hPPARβ was 2.13 µM. Moreover, the EC50 on hPPARα was determined as 2.19 µM.
Regarding `Cc1nc(-c2ccc(C(F)(F)F)cc2)sc1CSc1ccc2c(c1)CC(C(=O)O)C2` (stereo not shown) [Example 1, 5-[4-methyl-2-(4-trifluoromethyl-phenyl)-thiazol-5-ylmethylsulfanyl]-indan-2-carboxylic acid], the EC50 at hPPARβ was determined as 0.178 µM; on hPPARα it was 0.384 µM.
Consider `Cc1nc(-c2ccc(C(F)(F)F)cc2)sc1CSc1ccc2c(c1)CCN(CC(=O)O)C2` [Example 10, {6-[4-Methyl-2-(4-trifluoromethyl-phenyl)-thiazol-5-ylmethylsulfanyl]-3,4-dihydro-1H-isoquinolin-2-yl}-acetic acid], for which the EC50 on hPPARβ came out at 0.111 µM.

The values above are taken from patent US7109222B2, “Compounds that modulate PPAR activity and methods of preparation” (Warner-Lambert Company, LLC, priority 2002, dated 2006).
